# Test results taken from patent EP0173944A2, “Enhanced inhibition of yeast cell growth” (MILES INC., priority 1984, dated 1986).
# Where two headings read alike, the source gives them in different places. *1 amine or outer side, *2 acyl side, *3 side chain or, on linkers, in order; H or OH if unused. Where a SMILES comes first, the peptide text is derived from it. Bridges are numbered along the chain shown (N, C = ends). Roman numbers before positions name the chains, in order. [ ]: non-standard residue; d: D form. Actinocin(9to1) = Cc1c2oc3c(C)ccc(C(=O)[*:1])c3nc-2c(C(=O)[*:2])c(N)c1=O; NMeV = CN[C@H](C(=O)O)C(C)C; Sar = CNCC(=O)O
# Experiments:
# [1] = test system: Saccharomyces cerevisiae strain S288C; assay: Filter disc zone-of-inhibition test of yeast growth with or without PBN in the agar overlay; type: cell-based; settings: for Area of Zone of Inhibition: rifampicin 2.5 mg/disc; for Area of Zone of Inhibition, Control / effect on yeast growth, control sample: no PBN; for Area of Zone of Inhibition, Control / Area of Zone of Inhibition, PBN (4.8 A260 units): 30°C, 48 hours; for Area of Zone of Inhibition, PBN (4.8 A260 units): with PBN 4.8 A260 units; for effect on yeast growth, control sample / effect on yeast growth, PBN-containing sample: kanamycin 5.0, streptomycin 2.5, chloramphenicol 0.25 mg/disc, data not shown in Table 1; for effect on yeast growth, PBN-containing sample: with PBN; for inhibition of yeast growth in relation to the carbon source: glycerol or glucose as the carbon source
# Procedure: (§1) A convenient method for ascertaining the inhibition of growth of yeast cells is as follows. A sample of yeast cells (about 10 7 cells) from a viable overnight culture is added to a molten agar-containing growth medium to which has been added the desired amount of PBN. The resulting suspension is mixed rapidly and then poured onto an agar plate containing a suitable growth medium. The molten agar is allowed to solidify and sterile filter discs are placed on the surface. The solution of antibiotics to be tested are then pipetted onto the discs (50 microliters per disc). The plates are incubated and "read" for antibiotic sensitivity as determined by the zone of inhibition around the disc.
# (§2) Saccharomyces cerevisiae strain S288C was grown for 16 hours at 30°C in a liquid medium consisting of 1% (w/v) yeast extract, 2% (w/v) peptone, and 2% (w/v) glucose (YPD medium). One drop of cell suspension from this culture (about 5 x 10^6 to about 1 X 10 ^7 cells) was added to each of 2 tubes containing 3 ml of 0.7% agar, 1% yeast extract, 2% peptone, 2% glycerol (or alternatively 2% glucose as a carbon source) and 0.25 ml of 5 M NaCl maintained at 45-50°C to prevent the agar from solidifying. One tube contained., in addition to the above, 0.5 ml of PBN solution (4.8 A260 units) prepared as described above. The other tube served as a control. The tube contents were mixed rapidly and poured onto a Petri plate containing 25 ml of 2% agar, 1% yeast extract, 2% peptone, and 2% glycerol (YPG medium). After the agar had solidified, sterile filter disks (0.5 inch diameter) were placed on the surface of the agar and solutions of various antibiotics to be tested were pipetted onto the disks. The plates were incubated at 30°C for 48 hours and the inhibition of growth was determined by measuring the area of a zone of clearing formed around the discs (minus the area of the disc).
# The procedure described in Example I was repeated with Saccharomyces cerevisiae strain S288C except that increasing amounts of PBN were used. The rifampicin concentration on the discs was maintained at 2.5 mg/disc throughout.
# [2] = test system: Candida albicans (ATCC 10231); assay: as above; type: cell-based
# Procedure: as §1, §2
# The procedure described in Example I was repeated with Candida albicans (ATCC 10231). Inhibition of growth of this organism by G-418, rifampicin, cycloheximide and actinomycin D in the presence and absence (control) of PBN was determined.
# [3] = YPG medium, erythromycin 0.5, G-418 5.0, rifampicin 2.5 mg/disk
# [4] = no PBN, G-418 5.0, rifampicin 2.5, cycloheximide 0.5, actinomycin D 0.5 mg/disk
# [5] = with PBN 3.0 A260 units per plate in YPD medium, G-418 5.0, rifampicin 2.5, cycloheximide 0.5, actinomycin D 0.5 mg/disk
# [6] = YPD medium used for plating, 0.5 mg/disk in dimethylsulfoxide
SMILES,"Area of Zone of Inhibition, Control [1, 3]","Area of Zone of Inhibition, PBN (4.8 A260 units) [1, 3]","Area of Zone of Inhibition, Control [2, 4]","Area of Zone of Inhibition, PBN [2, 5]","effect on yeast growth, control sample [1]","effect on yeast growth, PBN-containing sample [1]",inhibition of yeast growth in relation to the carbon source [1],further results
CO[C@H]1/C=C/O[C@@]2(C)Oc3c(C)c(O)c4c(O)c(c(/C=N/N5CCN(C)CC5)c(O)c4c3C2=O)NC(=O)/C(C)=C\C=C\[C@H](C)[C@H](O)[C@@H](C)[C@@H](O)[C@@H](C)[C@H](OC(C)=O)[C@@H]1C [Rifampicin],<3 mm^2,95 mm^2,<3 mm^2,3 mm^2,–,–,–,Area of Zone of Inhibition ([1]; PBN 0.0 A260 units): 0 mm^2; Area of Zone of Inhibition ([1]; PBN 1.0 A260 units): 3.0 mm^2; Area of Zone of Inhibition ([1]; PBN 2.0 A260 units): 20.0 mm^2; Area of Zone of Inhibition ([1]; PBN 3.0 A260 units): 38.5 mm^2; Area of Zone of Inhibition ([1]; PBN 4.0 A260 units): 38.5 mm^2; Area of Zone of Inhibition ([1]; PBN 5.0 A260 units): 50.0 mm^2; Area of Zone of Inhibition ([1]; PBN 6.0 A260 units): 64.0 mm^2; Area of Zone of Inhibition ([1]; PBN 7.0 A260 units): 78.5 mm^2; Area of Zone of Inhibition ([1]; PBN 8.0 A260 units): 71.0 mm^2; Area of Zone of Inhibition ([1]; PBN 9.0 A260 units): 78.5 mm^2; Area of Zone of Inhibition ([1]; PBN 10.0 A260 units): 95.0 mm^2
NC[C@H]1O[C@H](O[C@H]2[C@H](O)[C@@H](O[C@H]3O[C@H](CO)[C@@H](O)[C@H](N)[C@H]3O)[C@H](N)C[C@@H]2N)[C@H](O)[C@@H](O)[C@@H]1O [kanamycin],–,–,–,–,no effect,no effect,–,–
[H]/N=C(/N)N[C@H]1[C@H](O)[C@@H](O)[C@H](O[C@@H]2O[C@@H](C)[C@](O)(C=O)[C@H]2O[C@@H]2O[C@@H](CO)[C@H](O)[C@@H](O)[C@@H]2NC)[C@@H](N/C(N)=N\[H])[C@@H]1O [streptomycin],–,–,–,–,no effect,no effect,–,–
O=C(N[C@H](CO)[C@H](O)c1ccc([N+](=O)[O-])cc1)C(Cl)Cl [chloramphenicol],–,–,–,–,no effect,no effect,–,–
CN[C@@H]1[C@@H](O)[C@@H](O[C@@H]2[C@@H](O)[C@H](O[C@H]3O[C@H]([C@@H](C)O)[C@@H](O)[C@H](O)[C@H]3N)[C@@H](N)C[C@H]2N)OC[C@]1(C)O [G-418],113 mm^2,490 mm^2,20 mm^2,346 mm^2,–,–,exhibited inhibition of yeast growth regardless of the carbon source,–
"Cc1c2oc3c(C)ccc(C(=O)N[C@@H]4C(=O)N[C@H](C(C)C)C(=O)N5CCC[C@H]5C(=O)N(C)CC(=O)N(C)[C@@H](C(C)C)C(=O)O[C@@H]4C)c3nc-2c(C(=O)N[C@@H]2C(=O)N[C@H](C(C)C)C(=O)N3CCC[C@H]3C(=O)N(C)CC(=O)N(C)[C@@H](C(C)C)C(=O)O[C@@H]2C)c(N)c1=O [Actinomycin D] (I: T[dV]P[Sar][NMeV] / II: T[dV]P[Sar][NMeV]; ester I:1-I:C, II:1-II:C; linker I:N-II:N via Actinocin(9to1))",–,–,<3 mm^2,452 mm^2,–,–,exhibited inhibition of yeast growth regardless of the carbon source,"Area of Zone of Inhibition, Control [1, 6]: <3 mm^2; Area of Zone of Inhibition, PBN (4.8 A260 units) [1, 6]: 314 mm^2"
C[C@@H]1C[C@@H]([C@H](O)CC2CC(=O)NC(=O)C2)C(=O)[C@@H](C)C1 [Cycloheximide],–,–,–,–,–,–,–,"Area of Zone of Inhibition, Control [2]: <3 mm^2; Area of Zone of Inhibition, PBN [2]: 64 mm^2"
CC[C@H]1OC(=O)[C@H](C)[C@@H](O[C@H]2C[C@@](C)(OC)[C@@H](O)[C@H](C)O2)[C@H](C)[C@@H](O[C@@H]2O[C@H](C)C[C@H](N(C)C)[C@H]2O)[C@](C)(O)C[C@@H](C)C(=O)[C@H](C)[C@@H](O)[C@]1(C)O [Erythromycin],80 mm^2,227 mm^2,–,–,–,–,effective in this test system only when glycerol (rather than glucose) is used as the carbon source,–
